Source: patent US9920063B2, “Melampomagnolide B derivatives” (Board of Trustees of the University of Arkansas, priority 2013, dated 2018)
Read-outs that look alike come from different tables or passages of the source.

Experiments:
cord blood cells = test: Toxicity against cord blood cells; format: cell-based
AML 052308 cells [1] = test system: AML 052308 cells
Experimental: (§1) For each compound, in vitro cell culture studies were performed in which a range of concentrations (0.25-20 μM) was tested for cytotoxicity against leukemia cell lines, primary leukemia specimens and normal bone marrow controls.

M9 ENL cells [2] = test system: M9 ENL cells
Experimental: (§2) Carbamate and carbonate derivatives of MMB were also screened for activity against M9 ENL cells at concentrations of 5, 10 and 20 μM (FIG. 10). […] Additionally, succinic amide derivatives of MMB were screened for activity against M9 ENL cells at concentrations of 5, 10 and 20 μM (FIG. 11).
(§3) Ester and amide derivatives of melampomagnolide B were screened for anti-leukemic activity against M9ENL AML cell lines (FIG. 12; FIG. 14; FIG. 15; FIG. 16). For each compound, in vitro cell culture studies were performed in which a range of concentrations (0.25-20 μM) was tested for cytotoxicity against leukemia cell lines, primary leukemia specimens and normal bone marrow controls.

[3] = test system: AML 123009 primary isolate; test: Antileukemic activity against AML 123009 primary isolate
Experimental: as §1

[4] = test system: AML 100510 primary isolate; test: Antileukemic activity against AML 100510 primary isolate
Experimental: as §1

AML 052308 cells [5] = test: Antileukemic activity against AML 052308 cells in culture; conditions: for Fold more potent than parthenolide: AML 052308 cells
Experimental: as §1

M9 ENL cells [6] = test: cells; conditions: 24 h
Experimental: as §2, §3

Compound	EC50 (cord blood cells) [µM]	Fold more cytotoxic than MMB (AML 052308 cells [1])	Antileukemic activity compared to MMB (M9 ENL cells [2]; M9 ENL cell line)	Antileukemic activity compared to MMB [3]	Antileukemic activity compared to MMB [4]	Fold more potent than parthenolide (AML 052308 cells [5])	EC50 (AML 052308 cells [5]; AML 052308 cells in culture) [µM]	EC50 (M9 ENL cells [2]; M9ENL AML cell lines, 24 hours of drug exposure) [µM]	EC50 (M9 ENL cells [6]) [µM]	EC50 (AML 052308 cells [5]) [µM]
C=C1C(=O)O[C@H]2[C@H]1CC/C(COC(=O)/C=C/c1c[nH]c3ccccc13)=C\CC[C@@]1(C)O[C@@H]21 [BS-2-04]	0.75	about 22 fold	good anti-leukemic activity compared to parent compound MMB	good anti-leukemic activity compared to parent compound MMB	good anti-leukemic activity compared to parent compound MMB	10 fold	0.72	–	–	–
C=C1C(=O)O[C@H]2[C@H]1CC/C(COC(=O)Cc1c[nH]c3ccccc13)=C\CC[C@@]1(C)O[C@@H]21 [BS-2-32]	–	around 7 fold	–	–	–	around 3 fold	4	4	–	–
C=C1C(=O)O[C@H]2[C@H]1CC/C(COC(=O)c1ccc3cc[nH]c3c1)=C\CC[C@@]1(C)O[C@@H]21 [BS-2-05]	–	around 7 fold	–	–	–	around 3 fold	–	–	2.5	2.5
